Numbers after ± are expanded uncertainties.
What was measured:
[1] = Molar enthalpy of transition or fusion; details: Crystal; DSC
[2] = for Normal melting temperature: DTA; for mass density: 298.15 K, 101.33 kPa
[3] = molar heat capacity at constant pressure; details: 298.15 K, 101.33 kPa, Small sample (50 mg) DSC

Row | Molar enthalpy of transition or fusion [1] [kcal/mol] | Normal melting temperature ([2]; Crystal) [°C] | molar heat capacity at constant pressure ([3]; Crystal) [J/K/mol] | mass density ([2]; Crystal) [kg/m3] | mass density ([2]; Liquid) [kg/m3] | molar heat capacity at constant pressure ([3]; Liquid) [J/K/mol] | Structure (SMILES)
1 | 3.37 ± 0.263 | 89.82 ± 0.4 | 132.04 ± 6.5 | – | – | – | CC(=O)c1ccc[nH]1 [2-acetylpyrrole]
2 | 3.71 ± 0.165 | 28.47 ± 0.4 | 140.94 ± 6.6 | 1098 ± 5 | – | – | CC(=O)c1ccco1 [2-acetylfuran]
3 | – | – | – | – | 1171 ± 5 | 210.72 ± 10 | CC(=O)c1cccs1 [2-acetylthiophene]

— the NIST ThermoML archive (doi:10.1016/j.tca.2009.04.012)
